Assays:
UACC-257 = assay: cells; conditions: Homo sapiens
SK-MEL-2 [1] = assay: cells; conditions: Homo sapiens
MDA-MB-435 = conditions: MDA-MB-435, Melanoma; five-dose 0.01–100 µM
MDA-MB-231/ATCC = assay: cells; conditions: Homo sapiens
CCRF-CEM [2] = conditions: Leukaemia, five-dose 0.01–100 µM
PC-3 [3] = conditions: PC-3, Prostate cancer; five-dose 0.01–100 µM
T-47D = conditions: Breast cancer, five-dose 0.01–100 µM
ACHN [4] = assay: cells; conditions: Homo sapiens
HCT-116 = assay: NCI one-dose screen (SRB); format: cell-based, human; conditions: HCT-116, Colon cancer; 10 µM single dose
Method: (§1) The growth percentage (G%) and cell viability of the herein target compounds 6a–l, 7a,b, and 9a–c have been screened towards a full panel of 59 cancer cells at NCI’s Developmental Therapeutics Program (NCI-DTP, MD, USA)[21]. The submitted analogues were initially examined for preliminary in vitro anticancer activity using sulforhodamine B (SRB) assay at 10 µM as a single dose to evaluate cell growth and viability according to the procedure of Drug Evaluation Branch[22]^,[23].
(§2) Different types of tumours – colon, NSCLC, leukaemia, CNS, renal, breast, ovarian, melanoma, and prostate cancers – were investigated as a full panel of 59 cell lines, and the attained results are cited in Figures S1–S17 (see Supplementary Material) where the value recorded is the growth relative to that of both the negative control and zero-time number of cells in which both growth inhibition (GI%; 0–100%) and lethality (L%; 0–100%) percentages can be identified. The growth inhibition means percentages (MGI%) for the examined target analogues towards the different treated 59 cancer cells were presented in Figure 2.
(§3) The designed analogues were submitted to NCI-Chemotherapeutic Agents Repository (MD, USA) for screening on a panel of 59 cancer cell lines. All compounds were initially examined at 10 µM concentration (Single-Dose Screen), and then the most efficient analogue 6i was screened further at 0.01–100 µM (Five-Dose Screen). The screening procedures were performed according to NCI-Drug Evaluation Branch protocol using SRB protein assay, as described previously[21]^,[66]. The experimental procedures were detailed in the Supporting Information.

PC-3 [5] = assay: NCI one-dose screen (SRB); format: cell-based, human; conditions: PC-3, Prostate; 10 µM single dose
Method: as §1, §2, §3

HOP-92 = assay: NCI one-dose screen (SRB); format: cell-based, human; conditions: HOP-92, NSCLC; 10 µM single dose
Method: as §1, §2, §3

HS 578 T = assay: NCI one-dose screen (SRB); format: cell-based, human; conditions: Breast cancer, 10 µM single dose
Method: as §1, §2, §3

786-0 = assay: NCI one-dose screen (SRB); format: cell-based, human; conditions: 786-0, Renal; 10 µM single dose
Method: as §1, §2, §3

SNB-19 = assay: NCI one-dose screen (SRB); format: cell-based, human; conditions: SNB-19, CNS cancer; 10 µM single dose
Method: as §1, §2, §3

CCRF-CEM [6] = assay: NCI one-dose screen (SRB); format: cell-based, human; conditions: Leukaemia, 10 µM single dose
Method: as §1, §2, §3

RPMI-8226 = assay: NCI one-dose screen (SRB); format: cell-based, human; conditions: RPMI-8226, Leukaemia; 10 µM single dose
Method: as §1, §2, §3

DU-145 [7] = assay: NCI one-dose screen (SRB); format: cell-based, human; conditions: DU-145, Prostate; 10 µM single dose
Method: as §1, §2, §3

DU-145 [8] = assay: cells; conditions: Homo sapiens
ACHN [9] = conditions: Renal cancer, five-dose 0.01–100 µM
HL-60(TB) = assay: cells; conditions: Homo sapiens
MCF-7 cells = assay: Apoptosis analysis (annexin-V/PI, flow cytometry); format: cell-based, human; conditions: MCF-7, 10 µM, 24 h; DMSO control 0.29%
Method: Figure 5. Flow cytometric analyses: cell cycle distribution analysis using PI staining method in which MCF-7 cells were treated by 6i (10 µM) and DMSO (negative control; NC) for 48 h; (A) 6i, (B) DMSO, (C) cells percentage in different phases (G0-G1, S, G2/M); apoptotic induction using annexin-V-FITC/PI staining method in which cancer cells were treated by 6i (10 µM) and DMSO (negative control; NC) for 24 h; (D) 6i, (E) DMSO, (F) histogram for induction of apoptosis.
Again, MCF-7 cells were treated with 6i (10 µM) to assess its effect on cell apoptosis. As shown in Figure 5(D,E), the fraction of cells in early apoptosis were 26.27% and 0.43%, while in late apoptosis, they were 8.90% and 0.29% for compound 6i and DMSO control, respectively. The obtained results hinted that compound 6i could induce apoptotic pathways. However, the ratio of apoptosis inferred that the anti-proliferative effect of compound 6i was largely dependent on apoptosis.
The MCF-7 cells (10^6 cells/ml) were treated with either 10 µM of 6i or DMSO (NC) for 24 h. After that, the cells were trypsinised, collected, washed, and stained with PE-Annexin-V (BioVision, K101-25) in the presence of PI[67]. The induction of apoptosis was analysed by flow cytometry using BD FACS Calibur[67].

SK-MEL-2 [10] = conditions: SK-MEL-2, Melanoma; five-dose 0.01–100 µM
SW-620 = conditions: SW-620, Colon cancer; five-dose 0.01–100 µM
MOLT-4 = conditions: MOLT-4, Leukaemia; five-dose 0.01–100 µM
recombinant hDHFR = recombinant hDHFR (Homo sapiens, UniProt P00374); assay: DHFR inhibitory assay
Chain of recombinant hDHFR (P00374 whole entry): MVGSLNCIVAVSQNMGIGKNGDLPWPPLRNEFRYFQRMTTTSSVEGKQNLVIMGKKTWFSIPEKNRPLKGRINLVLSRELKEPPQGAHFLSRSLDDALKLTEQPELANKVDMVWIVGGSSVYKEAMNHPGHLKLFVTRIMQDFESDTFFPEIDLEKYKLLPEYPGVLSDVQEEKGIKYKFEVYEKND
Method: DHFR inhibition assay kit (BioVision, K247–100) supplied with recombinant hDHFR was utilised in this assay. The assay was performed as instructed in assay kit[32]. Briefly, in a 96-well clear plate, serial dilutions of the test compound (2 μL) were loaded. […] An assay buffer (100 µl) was used as a Background Control. Then, 40 μL of diluted NADPH in assay buffer (40-fold dilution) was added and mixed well. At 25 °C in the dark, the plate was incubated for 15 min. […] Instantaneously, the absorbance was read at 340 nm for 10–20 min at 25 °C in kinetic mode by Robonik ELISA plate reader. Finally, the activity and relative inhibition percentages were measured using the equations indicated in the assay kit[33–35].

What does the source list for `CCOC(=O)CC[C@H](NC(=O)c1ccc(NC(=O)Cn2cnc3c(c(C)nn3-c3ccc(Br)cc3)c2=O)cc1)C(=O)OCC` [Compound 6i]?
GI50 (UACC-257; UACC-257): 31.5 µM; CC50 (UACC-257; UACC-257, read-out: LC50): > 100 µM; GI50 (SK-MEL-2 [1]; SK-MEL-2): 27.6 µM; CC50 (SK-MEL-2 [1]; SK-MEL-2, read-out: LC50): > 100 µM; TGI (MDA-MB-435): 34.3 µM; GI50 (MDA-MB-231/ATCC; MDA-MB-231): 11.5 µM; CC50 (MDA-MB-231/ATCC; MDA-MB-231, read-out: LC50): 62.5 µM; TGI (CCRF-CEM [2]): >100 µM; TGI (PC-3 [3]): 19.4 µM; TGI (T-47D): >100 µM; GI50 (ACHN [4]): 15.1 µM; CC50 (ACHN [4]; read-out: LC50): 78.3 µM; GI% (HCT-116): 70.04%; GI% (PC-3 [5]): 91.71%; GI% (HOP-92): 78.29%; GI% (HS 578 T): 75.80%; GI% (786-0): 82.93%; GI% (SNB-19): 61.23%; GI% (CCRF-CEM [6]): 70.05%; GI% (RPMI-8226): 53.52%; GI% (DU-145 [7]): 85.62%; GI50 (DU-145 [8]; DU-145): 7.47 µM; CC50 (DU-145 [8]; DU-145, read-out: LC50): > 100 µM; TGI (ACHN [9]): 34.3 µM; GI50 (HL-60(TB); HL-60): > 100 µM; CC50 (HL-60(TB); HL-60, read-out: LC50): > 100 µM; fraction of cells in late apoptosis (MCF-7 cells): 8.90%; TGI (SK-MEL-2 [10]): 89.1 µM; TGI (SW-620): 44.4 µM; TGI (MOLT-4): >100 µM; IC50 (recombinant hDHFR): 2.41 ± 0.13 µM
